# Tested on: mouse kidney
# Experiment: RNA-seq of kidney gene expression over time in FA nephropathy progression (Table 1)
# Format: in vivo
# Excerpt: Identification of Candidate Genes for Biomarkers of Kidney Fibrosis Through RNA-Seq. […] To select genes that are indicative of fibrosis candidates were considered from this later group that had robust upregulation (>5-fold with >100 read counts at peak) over time as fibrosis progresses. Another important criteria was the location of the protein product of the gene, either in extracellular matrix or transmembrane, to increase the chance of detecting it in the urine and use it as a biomarker(11).
# (§1) RNA samples (n=3 mice/time point) were sequenced at the Bioplymers Facility at the Harvard Medical School. Libraries were prepared from 10 ng total RNA per sample using the IntegenX Apollo 324 system and NuGEN SPIA reagents. Libraries were multiplexed in groups of three per lane of a flowcell and 50 cycle, paired-end sequencing was performed on an Illumina HiSeq2000 instrument. Illumina sequence quality was surveyed with FastQC (available on the world wide web at bioinformatics.babraham.ac.uk/projects/fastqc/) to ensure suitability of library generation and sequencing for further analysis. Adapters and lower quality bases were trimmed with Cutadapt (available on the world wide web at code.google.com/p/cutadapt/), using a Phred quality cutoff of 20, and reassessed with FastQC. Trimmed reads were aligned to the Ensembl NCBIM37 Mus musculus genome build with TopHat2. Aligned reads were summarized at the gene level against the Illumina iGenomes (available on the world wide web at tophat.cbcb.umd.edu/igenomes.html) NCBIM37 Mus musculus gene annotations using HTSeq (available on the world wide web at huber.embl.de/users/anders/HTSeq/doc/overview.html). […] The full dataset is available in the NCBI GEO database with the accession number GSE65267. Raw data is accessible on the world wide web at ncbi.nlm.nih.gov/geo/query/acc.cgi?acc=GSE65267.
# Mice were sacrificed at 1, 2, 3, 7 and 14 days following administration. […] All mice were sacrificed at 14 days.
# as §1, with “The quantity and quality of mRNA” for “RNA samples (n=3 mice/time point)”, “assayed on an Agilent 2200 TapeStation instrument and by SYBR qPCR assay.” for “sequenced at the Bioplymers Facility at the Harvard Medical School.”, “(https://code.google.com/p/cutadapt/),” for “(available on the world wide web at code.google.com/p/cutadapt/),”
compound,measurement,setting,value
"Nc1nc2ncc(CNc3ccc(C(=O)N[C@@H](CCC(=O)O)C(=O)O)cc3)nc2c(=O)[nH]1 [FA, folic acid]",Sycn mean fold change from normal,Day 3,0.07 fold
same,Synpr mean fold change from normal,Day 3,0.01 fold
same,Sytl2 mean fold change from normal,Day 3,8.20 fold
same,Tagln2 mean fold change from normal,Day 3,4.86 fold
same,Tbx10 mean fold change from normal,Day 3,0.08 fold
same,Timd2 mean fold change from normal,Day 3,1.47 fold
same,Timp1 mean fold change from normal,Day 3,60.56 fold
same,Tlr2 mean fold change from normal,Day 3,34.62 fold
same,Tmem25 mean fold change from normal,Day 3,0.39 fold
same,Tmem26 mean fold change from normal,Day 3,0.16 fold
same,Tmem207 mean fold change from normal,Day 3,0.14 fold
same,Tmsb10 mean fold change from normal,Day 3,9.84 fold
same,Tnc mean fold change from normal,Day 3,9.00 fold
same,Tnfaip3 mean fold change from normal,Day 3,6.38 fold
same,Tnfrsf23 mean fold change from normal,Day 3,5.65 fold
same,Top2a mean fold change from normal,Day 3,10.49 fold
same,Tpx2 mean fold change from normal,Day 3,7.65 fold
same,Tril mean fold change from normal,Day 3,0.69 fold
same,Tsc22d1 mean fold change from normal,Day 3,4.34 fold
same,Ttc36 mean fold change from normal,Day 3,0.34 fold
same,Ttr mean fold change from normal,Day 3,0.15 fold
same,Tyrobp mean fold change from normal,Day 3,4.90 fold
same,Ugt3a1 mean fold change from normal,Day 3,0.17 fold
same,Uhrf1 mean fold change from normal,Day 3,12.11 fold
same,Upp2 mean fold change from normal,Day 3,0.21 fold
same,Vcam1 mean fold change from normal,Day 3,121.91 fold
same,Vill mean fold change from normal,Day 3,0.18 fold
same,Vmn1r18 mean fold change from normal,Day 3,0.14 fold
same,Vmn1r19 mean fold change from normal,Day 3,0.52 fold
same,Vmn1r20 mean fold change from normal,Day 3,0.31 fold
same,Vmn1r-ps11 mean fold change from normal,Day 3,0.73 fold
same,Vstm2a mean fold change from normal,Day 3,0.04 fold
same,Vtcn1 mean fold change from normal,Day 3,28.37 fold
same,Vwce mean fold change from normal,Day 3,0.42 fold
same,Wfdc15b mean fold change from normal,Day 3,0.06 fold
same,Ybx2 mean fold change from normal,Day 3,0.18 fold
same,7SK RNA mean fold change from normal,Day 7,0.08 fold
same,2310042D19Rik mean fold change from normal,Day 7,0.46 fold
same,4930533I22Rik mean fold change from normal,Day 7,0.25 fold
same,4933417A18Rik mean fold change from normal,Day 7,0.41 fold
same,8430408G22Rik mean fold change from normal,Day 7,1.23 fold
same,9030619P08Rik mean fold change from normal,Day 7,0.03 fold
same,Slc2a5 mean fold change from normal,Day 7,0.25 fold
same,Slc4a1 mean fold change from normal,Day 7,0.35 fold
same,Slc5a4a mean fold change from normal,Day 7,0.17 fold
same,Slc5a12 mean fold change from normal,Day 7,0.35 fold
same,Slc6a12 mean fold change from normal,Day 7,0.12 fold
same,Slc7a13 mean fold change from normal,Day 7,0.10 fold
same,Slc28a1 mean fold change from normal,Day 7,0.44 fold
same,Slc34a1 mean fold change from normal,Day 7,0.30 fold
same,Slc34a2 mean fold change from normal,Day 7,7.02 fold
same,Slc34a3 mean fold change from normal,Day 7,0.20 fold
same,Slc46a3 mean fold change from normal,Day 7,0.31 fold
same,Slco1a1 mean fold change from normal,Day 7,0.12 fold
same,Smoc2 mean fold change from normal,Day 7,4.22 fold
same,Smpdl3b mean fold change from normal,Day 7,38.83 fold
same,Snx31 mean fold change from normal,Day 7,0.07 fold
same,Socs1 mean fold change from normal,Day 7,34.95 fold
same,Sox4 mean fold change from normal,Day 7,11.09 fold
same,Sox9 mean fold change from normal,Day 7,30.72 fold
same,Spaca7 mean fold change from normal,Day 7,30.89 fold
same,Spink6 mean fold change from normal,Day 7,5.47 fold
same,Spp1 mean fold change from normal,Day 7,37.70 fold
same,Spred3 mean fold change from normal,Day 7,3.82 fold
same,Spsb1 mean fold change from normal,Day 7,8.93 fold
same,Spt1c3 mean fold change from normal,Day 7,1.25 fold
same,St8sia2 mean fold change from normal,Day 7,26.47 fold
same,Stil mean fold change from normal,Day 7,3.57 fold
same,Stk32a mean fold change from normal,Day 7,2.72 fold
same,Stra6 mean fold change from normal,Day 7,22.31 fold
same,Susd2 mean fold change from normal,Day 7,0.28 fold
same,Sycn mean fold change from normal,Day 7,0.07 fold
same,Synpr mean fold change from normal,Day 7,0.01 fold
same,Sytl2 mean fold change from normal,Day 7,11.81 fold
same,Tagln2 mean fold change from normal,Day 7,4.01 fold
same,Tbx10 mean fold change from normal,Day 7,0.03 fold
same,Timd2 mean fold change from normal,Day 7,0.68 fold
same,Timp1 mean fold change from normal,Day 7,67.32 fold
same,Tlr2 mean fold change from normal,Day 7,15.78 fold
same,Tmem25 mean fold change from normal,Day 7,0.53 fold
same,Tmem26 mean fold change from normal,Day 7,0.16 fold
same,Tmem207 mean fold change from normal,Day 7,0.35 fold
same,Tmsb10 mean fold change from normal,Day 7,9.28 fold
same,Tnc mean fold change from normal,Day 7,16.74 fold
same,Tnfaip3 mean fold change from normal,Day 7,8.79 fold
same,Tnfrsf23 mean fold change from normal,Day 7,2.21 fold
same,Top2a mean fold change from normal,Day 7,5.58 fold
same,Tpx2 mean fold change from normal,Day 7,2.93 fold
same,Tril mean fold change from normal,Day 7,2.07 fold
same,Tsc22d1 mean fold change from normal,Day 7,2.18 fold
same,Ttc36 mean fold change from normal,Day 7,0.34 fold
same,Ttr mean fold change from normal,Day 7,0.56 fold
same,Tyrobp mean fold change from normal,Day 7,16.29 fold
same,Ugt3a1 mean fold change from normal,Day 7,0.22 fold
same,Uhrf1 mean fold change from normal,Day 7,3.81 fold
same,Upp2 mean fold change from normal,Day 7,0.69 fold
same,Vcam1 mean fold change from normal,Day 7,63.51 fold
same,Vill mean fold change from normal,Day 7,0.20 fold
same,Vmn1r18 mean fold change from normal,Day 7,0.27 fold
same,Vmn1r19 mean fold change from normal,Day 7,0.73 fold
same,Vmn1r20 mean fold change from normal,Day 7,0.27 fold
same,Vmn1r-ps11 mean fold change from normal,Day 7,0.11 fold
same,Vstm2a mean fold change from normal,Day 7,0.20 fold
same,Vtcn1 mean fold change from normal,Day 7,15.70 fold
same,Vwce mean fold change from normal,Day 7,1.03 fold
same,Wfdc15b mean fold change from normal,Day 7,0.27 fold
same,Ybx2 mean fold change from normal,Day 7,0.72 fold
same,7SK RNA mean fold change from normal,Day 14,1.35 fold
same,2310042D19Rik mean fold change from normal,Day 14,0.95 fold
same,4930533I22Rik mean fold change from normal,Day 14,0.74 fold
same,4933417A18Rik mean fold change from normal,Day 14,0.67 fold
same,8430408G22Rik mean fold change from normal,Day 14,0.79 fold
same,9030619P08Rik mean fold change from normal,Day 14,0.25 fold
same,Slc2a5 mean fold change from normal,Day 14,0.99 fold
same,Slc4a1 mean fold change from normal,Day 14,0.92 fold
same,Slc5a4a mean fold change from normal,Day 14,1.06 fold
same,Slc5a12 mean fold change from normal,Day 14,0.58 fold
same,Slc6a12 mean fold change from normal,Day 14,0.77 fold
same,Slc7a13 mean fold change from normal,Day 14,0.48 fold
same,Slc28a1 mean fold change from normal,Day 14,0.55 fold
same,Slc34a1 mean fold change from normal,Day 14,0.58 fold
same,Slc34a2 mean fold change from normal,Day 14,4.10 fold
same,Slc34a3 mean fold change from normal,Day 14,0.33 fold
same,Slc46a3 mean fold change from normal,Day 14,0.53 fold
same,Slco1a1 mean fold change from normal,Day 14,0.36 fold
same,Smoc2 mean fold change from normal,Day 14,6.08 fold
same,Smpdl3b mean fold change from normal,Day 14,19.27 fold
same,Snx31 mean fold change from normal,Day 14,0.27 fold
same,Socs1 mean fold change from normal,Day 14,36.18 fold
same,Sox4 mean fold change from normal,Day 14,7.60 fold
same,Sox9 mean fold change from normal,Day 14,8.17 fold
same,Spaca7 mean fold change from normal,Day 14,11.81 fold
same,Spink6 mean fold change from normal,Day 14,1.77 fold
same,Spp1 mean fold change from normal,Day 14,10.75 fold
same,Spred3 mean fold change from normal,Day 14,5.60 fold
same,Spsb1 mean fold change from normal,Day 14,4.14 fold
same,Spt1c3 mean fold change from normal,Day 14,0.68 fold
same,St8sia2 mean fold change from normal,Day 14,2.02 fold
same,Stil mean fold change from normal,Day 14,0.95 fold
same,Stk32a mean fold change from normal,Day 14,1.64 fold
same,Stra6 mean fold change from normal,Day 14,14.59 fold
same,Susd2 mean fold change from normal,Day 14,0.51 fold
same,Sycn mean fold change from normal,Day 14,0.22 fold
same,Synpr mean fold change from normal,Day 14,0.18 fold
same,Sytl2 mean fold change from normal,Day 14,6.72 fold
same,Tagln2 mean fold change from normal,Day 14,2.37 fold
same,Tbx10 mean fold change from normal,Day 14,0.44 fold
same,Timd2 mean fold change from normal,Day 14,0.67 fold
same,Timp1 mean fold change from normal,Day 14,61.27 fold
same,Tlr2 mean fold change from normal,Day 14,7.34 fold
same,Tmem25 mean fold change from normal,Day 14,0.53 fold
same,Tmem26 mean fold change from normal,Day 14,0.49 fold
same,Tmem207 mean fold change from normal,Day 14,1.20 fold
same,Tmsb10 mean fold change from normal,Day 14,5.31 fold
same,Tnc mean fold change from normal,Day 14,18.78 fold
same,Tnfaip3 mean fold change from normal,Day 14,3.95 fold
same,Tnfrsf23 mean fold change from normal,Day 14,1.75 fold
same,Top2a mean fold change from normal,Day 14,3.30 fold
same,Tpx2 mean fold change from normal,Day 14,2.69 fold
same,Tril mean fold change from normal,Day 14,0.97 fold
same,Tsc22d1 mean fold change from normal,Day 14,2.00 fold
same,Ttc36 mean fold change from normal,Day 14,0.67 fold
same,Ttr mean fold change from normal,Day 14,0.78 fold
same,Tyrobp mean fold change from normal,Day 14,10.29 fold
same,Ugt3a1 mean fold change from normal,Day 14,0.46 fold
same,Uhrf1 mean fold change from normal,Day 14,3.48 fold
same,Upp2 mean fold change from normal,Day 14,1.34 fold
same,Vcam1 mean fold change from normal,Day 14,36.46 fold
same,Vill mean fold change from normal,Day 14,0.36 fold
same,Vmn1r18 mean fold change from normal,Day 14,0.87 fold
same,Vmn1r19 mean fold change from normal,Day 14,1.04 fold
same,Vmn1r20 mean fold change from normal,Day 14,0.79 fold
same,Vmn1r-ps11 mean fold change from normal,Day 14,0.51 fold
same,Vstm2a mean fold change from normal,Day 14,0.60 fold
same,Vtcn1 mean fold change from normal,Day 14,7.44 fold
same,Vwce mean fold change from normal,Day 14,0.85 fold
same,Wfdc15b mean fold change from normal,Day 14,0.90 fold
same,Ybx2 mean fold change from normal,Day 14,0.44 fold
